Source: paper PMC7230731 (Marine Drugs, 2020)

Legend:
MCF-10A cells = assay: SRB cytotoxicity assay, non-tumorigenic MCF-10A; assay type: cell-based, human; settings: for Selectivity Index MCF-10A/MCF-7: IC50 MCF-10A / IC50 MCF-7; for IC50: non-tumorigenic human breast epithelial MCF-10A cells, SRB assay
Source text: The two examined human breast cancer cell lines (MCF-7 and Breast MDA-MB-231), and non-tumorigenic human breast epithelial cell line (MCF-10A) have been obtained from the American Type Culture Collection (ATCC). Assessment of cytotoxicity for target indole derivatives has been performed following the SRB colorimetric assay procedures, as reported earlier.
1. Anti-proliferative action toward human breast cell lines
The two examined human breast cancer cell lines (MCF-7 and Breast MDA-MB-231), and non-tumorigenic human breast epithelial cell line (MCF-10A) have been obtained from American Type Culture Collection (ATCC). The cells were maintained in Dulbecco's modified Eagle's medium (DMEM) supplemented with 10% heat inactivated fetal calf serum (GIBCO), penicillin (100 U/ml) and streptomycin (100 µg/ml) at 37 °C in humidified atmosphere containing 5% CO2. Cells at a concentration of 0.50 x 106 were grown in a 25 cm2 flask in 5 ml of culture medium.
The anti-proliferative activity of the tested compounds was measured in vitro using the Sulfo-Rhodamine-B stain (SRB) assay. Briefly, Cells were inoculated in 96-well microtiter plate (5X104 cells/ well) for 24 h before treatment with the tested compounds to allow attachment of cell to the wall of the plate. Tested compounds were dissolved in DMSO at 1 mg/ml immediately before use and diluted to the appropriate volume just before addition to the cell culture. Different concentrations of tested compounds, doxorubicin and sorafenib were added to the cells (three wells were prepared for each individual dose). Cells were incubated with the compounds for 48 h at 37°C and in atmosphere of 5% CO2. After 48 h cells were fixed, washed, and stained for 30 min with 0.4% (w/v) SRB dissolved in 1% acetic acid. Unbound dye was removed by four washes with 1% acetic acid, and attached stain was recovered with Tris-EDTA buffer. Color intensity was measured in an ELISA reader. The relation between percent of surviving fraction and drug concentration is plotted to get the survival curve for each cell line. […]

CDK2 = biological target: T1, CDK2 (Homo sapiens, UniProt P24941); assay: CDK2 kinase inhibition (Reaction Biology HotSpot); assay type: biochemical; settings: single dose of 10 µM, read-out: % Enzyme Inhibitory Activity
T1 construct: purchased Reaction Biology Corp. (Kinase HotSpot service)
Protocol: The in vitro CDK2 kinase inhibition assay was carried out by Reaction Biology Corp. (Reaction Biology Corp., Chester, PA, USA) Kinase HotSpotSM service (http://www.reactionbiology.com).
5. CDK2 kinase inhibitory activity
Reaction Biology Corp. Kinase HotSpotSM service
(http://www.reactionbiology.com) was used for screening of tested compounds. CDK2 Kinase inhibitory activity was assessed by the HotSpot assay platform, which contained specific kinase/substrate pairs along with required cofactors. Base reaction buffer:
0.1 mM Na3VO4, 2 mM DTT, 1% DMSO. Testing compounds were dissolved in 100% DMSO to specific concentration. The serial dilution was conducted by Integra Viaflo Assist in DMSO. The reaction mixture containing the examined compound and 33P-ATP was incubated at room temperature for 2 h and radioactivity was detected by filter-binding method. Kinase activity data were expressed as the percent remaining kinase activity in test samples compared to vehicle (dimethyl sulfoxide) reactions.

MCF-7 cells = assay: Cell cycle analysis by DNA flow cytometry; assay type: cell-based, human; settings: IC50 concentration; for %G0-G1 / %G2/M / %S / %Sub-G1: 24 h
Protocol: Anticancer agents exert their cytotoxic action by aborting cellular proliferation at certain checkpoints. These checkpoints are distinguishable phases in the cell cycle, whose suppression results in termination of the cell proliferation.
The influence of bis-indoles 7e and 9a on cell cycle progression was examined in breast cancer MCF-7 cells, after 24 h of treatment, through DNA flow cytometric assay by the use of BD FACS Caliber flow cytometer, as described previously. The cell cycle distributions were calculated using CellQuest software (Becton Dickinson). […]
The two examined human breast cancer cell lines (MCF-7 and Breast MDA-MB-231), and non-tumorigenic human breast epithelial cell line (MCF-10A) have been obtained from American Type Culture Collection (ATCC). The cells were maintained in Dulbecco's modified Eagle's medium (DMEM) supplemented with 10% heat inactivated fetal calf serum (GIBCO), penicillin (100 U/ml) and streptomycin (100 µg/ml) at 37 °C in humidified atmosphere containing 5% CO2. Cells at a concentration of 0.50 x 106 were grown in a 25 cm2 flask in 5 ml of culture medium. […]
Breast cancer MCF-7 cells were treated with bis-indoles 7e and 9a for 24 h (at their IC50 concentration), and then cells were washed twice with ice-cold phosphate buffered saline (PBS). Subsequently, the treated cells were collected by centrifugation, fixed in ice-cold 70% (v/v) ethanol, washed with PBS, re-suspended with 100 μg/mL RNase, stained with 40 μg/mL PI, and analyzed by flow cytometry using FACS Calibur (Becton Dickinson, BD, Franklin Lakes, NJ, USA). The cell cycle distributions were calculated using CellQuest software 5.1 (Becton Dickinson).

MDA-MB-231 cells = assay: SRB antiproliferative assay, MDA-MB-231; assay type: cell-based, human; settings: for IC50: Homo sapiens, MDA-MB-231, 48 h, MDA-MB-231 triple-negative breast cancer cells, SRB assay, 48 h, mean ± S.D. of three experiments
Protocol: 1. Anti-proliferative action toward human breast cell lines […]
and non-tumorigenic human breast epithelial cell line (MCF-10A) have been obtained from American Type Culture Collection (ATCC). The cells were maintained in Dulbecco's modified Eagle's medium (DMEM) supplemented with 10% heat inactivated fetal calf serum (GIBCO), penicillin (100 U/ml) and streptomycin (100 µg/ml) at 37 °C in humidified atmosphere containing 5% CO2. […]
grown in a 25 cm2 flask in 5 ml of culture medium.
The anti-proliferative activity of the tested compounds was measured in vitro using the Sulfo-Rhodamine-B stain (SRB) assay. Briefly, Cells were inoculated in 96-well microtiter plate (5X104 cells/ well) for 24 h before treatment with the tested compounds to allow attachment of cell to the wall of the plate. Tested compounds were dissolved in DMSO at 1 mg/ml immediately before use and diluted to the appropriate volume just before addition to the cell culture. Different concentrations of tested compounds, doxorubicin and sorafenib were added to the cells (three wells were prepared for each […]
atmosphere of 5% CO2. After 48 h cells were fixed, washed, and stained for 30 min with 0.4% (w/v) SRB dissolved in 1% acetic acid. Unbound dye was removed by four washes with 1% acetic acid, and attached stain was recovered with Tris-EDTA buffer. Color intensity was measured in an ELISA reader. The relation between percent of surviving fraction and drug concentration is plotted to get the survival curve for each cell line. […]

O=C(Cc1c[nH]c2ccccc12)NN=C1C(=O)Nc2ccc([N+](=O)[O-])cc21 [Compound 7e, 2-(1H-Indol-3-yl)-N′-(5-nitro-2-oxoindolin-3-ylidene)acetohydrazide]
Selectivity Index MCF-10A/MCF-7 (MCF-10A cells): 38.7
IC50 (MCF-10A cells): 17.1 µM
inhibition at 10 µM (CDK2): 16%
augmentation of proportion of cells in G2/M phase vs control (MCF-7 cells): 3 fold
augmentation of proportion of cells in Sub-G1 phase vs control (MCF-7 cells): 18.77 fold
%G0-G1 (MCF-7 cells): 31.66%
%G2/M (MCF-7 cells): 42.9%
%S (MCF-7 cells): 25.44%
%Sub-G1 (MCF-7 cells): 33.61%
IC50 (MDA-MB-231 cells): 1.32 ± 0.03 µM
potency relative to Staurosporine, MDA-MB-231 (MDA-MB-231 cells; ratio of IC50 values, MDA-MB-231 cells): 7.8 times

C=CCN1C(=O)C(=NNC(=O)Cc2c[nH]c3ccccc23)c2ccccc21 [Compound 9a, N′-(1-Allyl-2-oxoindolin-3-ylidene)-2-(1H-indol-3-yl)acetohydrazide]
Selectivity Index MCF-10A/MCF-7 (MCF-10A cells): 18.3
IC50 (MCF-10A cells): 23.5 µM
inhibition at 10 µM (CDK2): 23%
augmentation of proportion of cells in G2/M phase vs control (MCF-7 cells): 2.21 fold
augmentation of proportion of cells in Sub-G1 phase vs control (MCF-7 cells): 13.42 fold
%G0-G1 (MCF-7 cells): 43.82%
%G2/M (MCF-7 cells): 31.27%
%S (MCF-7 cells): 24.91%
%Sub-G1 (MCF-7 cells): 24.02%
IC50 (MDA-MB-231 cells): 18.2 ± 0.62 µM
